According to ChEMBL document CHEMBL1145849, “QSAR and the rational design of long-acting dual D2-receptor/beta 2-adrenoceptor agonists” (J Med Chem, 2003):
Values joined by “and” are separate entries in the source; they are usually repeats but may differ in a detail not shown here. Equal values may be shown once.

What was measured:
[1] = target: Beta-2 adrenergic receptor (Cavia porcellus) (UniProt Q8K4Z4); conditions: Trachea
Description: Beta-2-adrenoceptor potency was determined in rings of guinea-pig isolated trachea

physchem [2] = conditions: octanol/water, pH 7.4, logD
physchem [3] = test: physchem
Description: Ionization constant (pKa)

physchem [4] = test: physchem; remark: listed apart in the source
Description: (§1) Classification of ionization constant (pKa)

physchem [5] = test: physchem; remark: listed apart in the source
Description: as §1

[6] = target: Beta-2 adrenergic receptor (Cavia porcellus) (UniProt Q8K4Z4)
Description: In vitro beta-2 duration was determined using electrically stimulated guinea-pig isolated trachea superfusion system

[7] = target: D(2) dopamine receptor (Homo sapiens) (UniProt P14416); test: […] D2 duration was determined using electrically stimulated guinea-pig isolated trachea superfusion system; assay type: functional; conditions: Cavia porcellus, target entry is the homologue from another species
[8] = octanol/water, pH 7.4

Sequence of D(2) dopamine receptor (Homo sapiens) (P14416 whole entry, the tested form may be a part): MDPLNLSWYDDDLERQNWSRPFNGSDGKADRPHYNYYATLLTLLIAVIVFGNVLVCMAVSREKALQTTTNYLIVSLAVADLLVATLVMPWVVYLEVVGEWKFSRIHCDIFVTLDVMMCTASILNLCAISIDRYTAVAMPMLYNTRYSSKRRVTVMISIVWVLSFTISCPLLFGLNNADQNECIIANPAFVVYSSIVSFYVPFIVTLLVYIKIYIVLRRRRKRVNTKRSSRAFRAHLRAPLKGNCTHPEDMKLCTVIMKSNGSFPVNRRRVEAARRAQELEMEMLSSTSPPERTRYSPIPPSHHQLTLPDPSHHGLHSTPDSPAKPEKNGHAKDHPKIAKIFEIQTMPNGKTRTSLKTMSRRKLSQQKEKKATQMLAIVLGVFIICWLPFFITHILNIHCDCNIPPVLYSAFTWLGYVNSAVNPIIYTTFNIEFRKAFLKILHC
Sequence of Beta-2 adrenergic receptor (Cavia porcellus) (Q8K4Z4 whole entry, looked up, the tested form may be a part): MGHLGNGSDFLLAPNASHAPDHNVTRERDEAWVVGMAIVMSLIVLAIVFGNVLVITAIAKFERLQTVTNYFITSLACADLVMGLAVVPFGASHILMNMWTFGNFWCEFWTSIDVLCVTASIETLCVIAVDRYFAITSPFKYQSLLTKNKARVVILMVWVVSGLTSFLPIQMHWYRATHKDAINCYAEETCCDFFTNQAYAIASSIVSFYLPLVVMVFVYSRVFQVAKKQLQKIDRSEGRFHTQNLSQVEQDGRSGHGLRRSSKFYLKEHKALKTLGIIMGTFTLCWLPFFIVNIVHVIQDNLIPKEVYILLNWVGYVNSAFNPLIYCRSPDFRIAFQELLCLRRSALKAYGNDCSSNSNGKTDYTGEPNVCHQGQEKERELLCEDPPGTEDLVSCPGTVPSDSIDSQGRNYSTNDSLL

Question: Which p[A]50 [1] does the source give for `O=c1[nH]c2c(O)ccc(CCNCCS(=O)(=O)CCCOCCc3ccccc3)c2s1` [SIBENADET] here?
Answer: 8.09

Question: What about the logD (physchem [2]) of the same compound?
Answer: 2.51

Question: And the pKa (physchem [3])?
Answer: < 8

Question: And the pKa (physchem [4])?
Answer: 6.58

Question: And the pKa (physchem [5])?
Answer: 8.55

Question: What about the Beta2 duration [6] of the same compound?
Answer: 146 min

Question: What does the source list for `O=C(CCOCCc1ccccc1)NCCNCCc1ccc(O)c2nc(O)sc12`?
Answer: p[A]50 [1]: 9.27; logD (physchem [2]): 1.34; pKa (physchem [3]): > 8; pKa (physchem [4]): 8.75; pKa (physchem [5]): 7.62; Beta2 duration [6]: 57 min; D2 duration [7]: 150 min

Question: For `O=C(CCCCCNCCc1ccc(O)c2nc(O)sc12)NCCc1ccccc1`, which p[A]50 [1] is on record?
Answer: 7.18

Question: And the logD (physchem [2])?
Answer: 1.29

Question: And the pKa (physchem [3])?
Answer: > 8

Question: What about the Beta2 duration [6] of the same compound?
Answer: 22 min

Question: What about the D2 duration [7] of the same compound?
Answer: 90 min

Question: Which results are given for `O=S(=O)(CCOCCc1ccccc1)NCCNCCc1ccc(O)c2nc(O)sc12`?
Answer: p[A]50 [1]: 7.39; logD (physchem [2]): 1.56; pKa (physchem [3]): > 8; pKa (physchem [4]): 8.58; pKa (physchem [5]): 7.5; Beta2 duration [6]: 135 min

Question: Which results are given for `Oc1nc2c(O)ccc(CCNCCCCCCOCCc3ccccc3)c2s1`?
Answer: p[A]50 [1]: 8.23; logD (physchem [2]): 2.73; pKa (physchem [3]): > 8; Beta2 duration [6]: > 180 min; D2 duration [7]: 270 min

Question: Which p[A]50 [1] does the source give for `O=c1[nH]c2c(O)ccc(CCNCCCS(=O)(=O)CCCOCCc3ccccc3)c2s1` here?
Answer: 8.24

Question: What about the logD (physchem [2]) of the same compound?
Answer: 1.65

Question: What about the pKa (physchem [3]) of the same compound?
Answer: > 8

Question: What about the logD [8] of the same compound?
Answer: 1.34

Question: And the Beta2 duration [6]?
Answer: 172 min and 80 min

Question: What about the D2 duration [7] of the same compound?
Answer: 270 min

Question: Which p[A]50 [1] does the source give for `O=c1[nH]c2c(O)ccc(CCNCCCSCCOCCc3ccccc3)c2s1` here?
Answer: 8.02

Question: And the logD (physchem [2])?
Answer: 2.31

Question: And the pKa (physchem [3])?
Answer: > 8

Question: And the pKa (physchem [4])?
Answer: 10.2

Question: And the logD [8]?
Answer: 3.53

Question: What about the Beta2 duration [6] of the same compound?
Answer: > 180 min

Question: And the D2 duration [7]?
Answer: 270 min

Question: For `CN(CCCS(=O)(=O)CCOCCc1ccccc1)CCc1ccc(O)c2nc(O)sc12`, which D2 duration [7] is on record?
Answer: 150 min

Question: With `Oc1nc2c(O)ccc(CCNCCOCCCOCCc3ccccc3)c2s1` as the compound, how does the p[A]50 [1] read?
Answer: 7.16

Question: And the logD (physchem [2])?
Answer: 2.06

Question: What about the pKa (physchem [3]) of the same compound?
Answer: > 8

Question: What about the pKa (physchem [4]) of the same compound?
Answer: 8.68

Question: And the pKa (physchem [5])?
Answer: 7.55

Question: What about the Beta2 duration [6] of the same compound?
Answer: > 1080 min

Question: Which results are given for `Oc1nc2c(O)ccc(CCNCCCOCCOCCc3ccccc3)c2s1`?
Answer: p[A]50 [1]: 8.82; logD (physchem [2]): 1.19; pKa (physchem [3]): > 8; pKa (physchem [4]): 9.23; pKa (physchem [5]): 7.65; Beta2 duration [6]: > 180 min

Question: For `O=S(=O)(CCCNCCc1ccc(O)c2nc(O)sc12)CCOCCc1ccccc1`, which p[A]50 [1] is on record?
Answer: 7.93

Question: What about the logD (physchem [2]) of the same compound?
Answer: 1.37

Question: What about the pKa (physchem [3]) of the same compound?
Answer: > 8

Question: And the pKa (physchem [4])?
Answer: 9.07

Question: What about the pKa (physchem [5]) of the same compound?
Answer: 7.35

Question: And the Beta2 duration [6]?
Answer: 140 min

Question: And the D2 duration [7]?
Answer: 270 min
